Assays:
isolated rat heart [1] = assay: Isolated heart perfusion (Langendorff), 30 min ischemia / 30 min reperfusion, hemodynamic recovery; details: FTS 1 μM in perfusate
Protocol: FTS was provided by Concordia Pharmaceuticals, Inc. (Ft. Lauderdale, Fla.). […] The powder was dissolved in DMSO and diluted with Krebs-Henseleit bicarbonate buffer solution (KHB) to yield a 1 μM drug solution containing 10% DMSO. Rats were heparinized (500 U/kg) and anesthetized (i.p.) with ether. The hearts were quickly removed, the aorta was cannulated and the heart perfused in retrograde according to Langendorff at a pressure of 96 cmH2O with oxygenated Krebs-Henseleit bicarbonate buffer solution (KHB) containing (mM): 118 NaCl, 2.4 KCl, 1.2 MgSO4, 7×H2O, 2.5 CaCl2, 5 EDTA, 1.2 KH2PO4, 25 NaHCO3, 4 glucose at 37° C. [[…], Offen D, Maulik N, Otani H, Barhum Y, et al., Am J Physiol Heart Circ Physiol 284:H2351-59 (2003)]. The isolated heart was stabilized for 20 minutes at a constant perfusion pressure and then subjected to 30 minutes of ischemia followed by 30 minutes of reperfusion. Ischemia was created by clamping the aortic cannula. During reperfusion, hearts were given KHB (buffer) with FTS or KHB only. The temperature of the heart (measured in the right ventricle) was maintained at 37°±0.2° C. throughout the experiment by a micro-thermocouple connected to a digital thermometer (Webster Laboratories […], Calif.). In all stages of the protocol, the left ventricular developed pressure (LVP), the rate of pressure development and relaxation (±dP/dt) and the heart rate (HR), were continuously recorded by the CODAS data acquisition system (San Diego, Calif.). Rate pressure product (RPP), an index of myocardial workload, was calculated by multiplying LVP by HR. Coronary effluent was collected at one-minute intervals before and after ischemia, at various time points (1, 10 and 30 minutes reperfusion) and analyzed for CK activity (Boehringer Mannheim). Results are expressed as means±standard error of the mean (SE). Values during stabilization period were defined as 100%. A statistical difference between the groups was assessed by analysis of variance (ANOVA) with repeated measurements using the multiple comparison option of Duncan. If differences were established, values were compared using Student's t-test: p<0.05 was considered significant. To determine the protective effects of Ras protein inhibition on cardiac damage derived from I/R injury ex vivo, we first determined the baseline absolute values of the rats and cardiac function prior to ischemia in FTS (1 μM) and control groups. […] Values are expressed as mean±SE. Next, we perfused the isolated rat hearts with FTS (1 μM) in the Langendorff system after 30 minutes of ischemia (FIG. 1). FTS had no effect on the CF recovery in the FTS vs. control group (FIG. 1A) during the 30 minutes of reperfusion.

isolated rat heart [2] = assay: Enzymatic leakage of CK and LDH into the coronary effluent of isolated perfused hearts; details: FTS 1 μM, at 1 minute and 30 minutes of reperfusion
Protocol: (§1) Rats were heparinized (500 U/kg) and anesthetized (i.p.) with ether. The hearts were quickly removed, the aorta was cannulated and the heart perfused in retrograde according to Langendorff at a pressure of 96 cmH2O with oxygenated Krebs-Henseleit bicarbonate buffer solution (KHB) containing (mM): 118 NaCl, 2.4 KCl, 1.2 MgSO4, 7×H2O, 2.5 CaCl2, 5 EDTA, 1.2 KH2PO4, 25 NaHCO3, 4 glucose at 37° C. [[…], Offen D, Maulik N, Otani H, Barhum Y, et al., Am J Physiol Heart Circ Physiol 284:H2351-59 (2003)]. The isolated heart was stabilized for 20 minutes at a constant perfusion pressure and then subjected to 30 minutes of ischemia followed by 30 minutes of reperfusion. Ischemia was created by clamping the aortic cannula. During reperfusion, hearts were given KHB (buffer) with FTS or KHB only. The temperature of the heart (measured in the right ventricle) was maintained at 37°±0.2° C. throughout the experiment by a micro-thermocouple connected to a digital thermometer (Webster Laboratories […], Calif.). In all stages of the protocol, the left ventricular developed pressure (LVP), the rate of pressure development and relaxation (±dP/dt) and the heart rate (HR), were continuously recorded by the CODAS data acquisition system (San Diego, Calif.). Rate pressure product (RPP), an index of myocardial workload, was calculated by multiplying LVP by HR. […]

isolated rat heart [3] = assay: Measurement of irreversible ischemic injury by TTC staining of isolated perfused hearts; details: FTS 1 μM perfusion, 30 minutes ischemia and 30 minutes of reperfusion; control 23.7±4%, p<0.05; mean±SE
Protocol: as §1

[4] = tested on: Ras and its downstream effectors; assay: Western immunoblotting / Ras-GTP pull-down of homogenates of isolated perfused hearts (ex vivo); design: species or system rat; details: FTS 1 μM, 30 minutes of reperfusion
Protocol: Hearts were obtained from FTS- and PBS-treated rats (LAD ligation experiments) and from isolated heart perfusion experiments. The hearts were homogenized in cold homogenization buffer containing protease inhibitors. Protein concentration was determined by the Bradford assay and samples containing 100 μg protein were used for determination of protein levels by Western immunoblotting using: pan-anti-Ras Ab (Ab03; Santa Cruz, Calif.), anti JNK Ab (Cell Signaling; Danvers, Mass.), anti p-JNK Ab (Cell Signaling), anti P38 Ab (Cell Signaling), anti p-P38 Ab (Cell Signaling), anti Mst1 Ab (Cell Signaling), and anti p-Mst1 Ab (Cell Signaling). Enhanced chemiluminescence (ECL) and densitometric analysis were performed as detailed previously [[…], Weisz […], Paz A, Marciano D, Egozi Y, et al., Biochemistry 37(5):1306-14 (1998)1. The hearts were prepared as described above. Samples containing 0.5 mg protein used for determination of levels of active GTP-bound Ras by the glutathione S-transferase-RBD pull-down assay followed by Western immunoblotting with pan-anti-Ras Ab as detailed previously [Jansen […], Mayer […], et al., Proc Natl Acad Sci U.S.A. 96(24):14019-24 (1999)]. To examine the effect of FTS on Ras signaling on its prominent downstream effectors, Western immunoblotting using homogenates of the isolated perfused hearts was performed. Quantitative analysis of the immunoblots disclosed a reduction in levels of active Ras (Ras-GTP) and p-Jnk in hearts of the FTS group (p<0.05) at 30 minutes of reperfusion.

[5] = tested on: Ras and its downstream effectors; assay: Western immunoblotting / Ras-GTP pull-down of hearts from LAD ligation rats (in vivo); design: species or system rat; details: Protocol A, 5 mg/kg
[6] = human, in vivo; cited from earlier work
Male Lewis rats [7] = assay: LAD artery ligation I/R model, echocardiography at day 14; details: 5 mg/kg i.p.
Protocol: (§2) At the age of 12 weeks, rats were anesthetized (mixture of 8 mg/100 g ketamine, 5 mg/100 g xylazine), intubated, and ventilated with a Harvard Rodent Ventilator Model 383 (respiratory rate: 50/min, respiratory volume: 2.5 mL). A rectal thermocouple was used to continuously monitor body temperature, which was maintained at 37° C. using a heating pad. A left thoracotomy in the third intercostal space was performed to expose the heart. The location of the left descending coronary artery was identified and then occluded with a 6-0 silk suture. Occlusion was confirmed by monitoring the pallor of the region at risk, and an electrocardiogram was used to observe changes such as widening of QRS and ST-T segment elevation. After 30 minutes, the occlusion was removed, the thorax was closed, and rats were returned to their cages at the local vivarium.
FTS was stored in chloroform, which was evaporated under a stream of nitrogen immediately before use. The powder was dissolved in absolute ethanol and diluted to the desired concentration in sterile PBS made basic with NaOH. Carrier solution (1000 μl) containing 1.35 mg of FTS (5 mg/kg) was injected intraperitoneally (i.p.) into each rat. Control solution was prepared at the same time starting with PBS and absolute ethanol.
LAD ligation was performed in two groups of rats. Group 1 received 5 mg/kg FTS and group 2 received PBS according to two protocols: (A) FTS or PBS was administered 7 days on a daily basis before LAD ligation, locally during occlusion opening (0.5 μM/100 μl), and continued for 14 days, every other day [prophylactic regimen] (B) FTS or PBS was administered 14 days after LAD ligation every other day [treatment regimen].
To examine the effect of systemic FTS treatment on the heart, in vivo experiments were conducted according two protocols.

Male Lewis rats [8] = assay: LAD artery ligation I/R model, histopathology (H&E and Masson Trichrome), area of irreversible damage; details: 5 mg/kg i.p.
Protocol: as §2
FTS was stored in chloroform, which was evaporated under a stream of nitrogen immediately before use. The powder was dissolved in absolute ethanol and diluted to the desired concentration in sterile PBS made basic with NaOH. […]
Hearts were removed and fixed in 4% formalin, then embedded in paraffin. […] Slides were then assessed in a blinded fashion by a pathologist using light microscopy and scored for the percentage of LVP involvement and collagen deposition. Scar area was evaluated using data from both H&E and Masson staining. […]

[9] = reperfusion after 30 minutes of ischemia, p<0.05
[10] = Protocol A (prophylactic regimen), p<0.05

For CC(C)=CCC/C(C)=C/CC/C(C)=C/CSc1ccccc1C(=O)O [FTS, S-farnesylthiosalicylic acid], the “CF (coronary flow) recovery vs. control” value (isolated rat heart [1]; 30 minutes of reperfusion after 30 minutes of ischemia) was “no effect”, the “recovery of HR vs. control” value (isolated rat heart [1]; reperfusion after 30 minutes of ischemia) was “no significant difference” and the “LVP recovery vs. control” value (isolated rat heart [1]; [9]) was “significantly better”. For the same compound, the “±dP/dt recovery vs. control” value (isolated rat heart [1]; [9]) was “significantly better”, the “CK release to the coronary effluent vs. control” value (isolated rat heart [2]) was “lower in the FTS group compared with control group, but did not reach statistical significance” and the “LDH release to the coronary effluent vs. control” value (isolated rat heart [2]) was “lower in the FTS group compared with control group, but did not reach statistical significance”. The “regions of irreversible ischemic injury (TTC-negative area, percentage of the entire area of the section)” value (isolated rat heart [3]) was 12.7±2%, the “Jnk levels vs. control” value [4] was “No differences” and the “Mst1 levels vs. control” value [4] was “No differences”. The “P38 levels vs. control” value [4] was “No differences”, the “p-Mst1 levels vs. control” value [4] was “No differences” and the “p-P38 levels vs. control” value [4] was “No differences”. The “total Ras levels vs. control” value [4] was “No differences”, the “levels of active Ras (Ras-GTP) vs. control” value ([4]; p<0.05) was “reduction” and the “levels of p-Jnk vs. control” value ([4]; p<0.05) was “reduction”. The “levels of Jnk vs. control” value [5] was “did not differ”, the “levels of Mst vs. control” value [5] was “did not differ” and the “levels of P38 vs. control” value [5] was “did not differ”. For the same compound, the “levels of p-Jnk vs. control” value [5] was “did not differ”, the “levels of p-P38 vs. control” value [5] was “did not differ” and the “levels of active Ras (Ras-GTP) vs. control” value ([5]; p<0.05) was “reduction”. For the same compound, the “levels of p-Mst1 vs. control” value ([5]; p<0.05) was “reduction”, the “levels of total Ras vs. control” value ([5]; p<0.05) was “reduction” and the “tolerability / dose-limiting toxicities” value [6] was “well-tolerated compound without dose-limiting toxicities”. For the same compound, the “hemodynamic parameters of cardiac function vs. control I/R” value (Male Lewis rats [7]; Protocol A (prophylactic regimen)) was “significant improvement in most hemodynamic parameters”, the “left ventricular end-diastolic area (LVEDA) vs. control I/R” value (Male Lewis rats [7]; [10]) was “significantly better” and the “left ventricular end-systolic area (LVESA) vs. control I/R” value (Male Lewis rats [7]; [10]) was “significantly better”. For the same compound, the septum diameter (Male Lewis rats [7]; Protocol A (prophylactic regimen), control I/R 0.1±0.01, p<0.05, mean±SE) was 0.14±0.01 cm, the “fractional shortening of area” value (Male Lewis rats [7]; Protocol A (prophylactic regimen), control I/R 38±4%, p<0.05, mean±SE) was 55±6% and the “cardiac hemodynamic function vs. control I/R” value (Male Lewis rats [7]; Protocol B (treatment regimen, 14 days post-LAD ligation)) was “no improvement”. The “area of irreversible damage (percentage of LV wall)” value (Male Lewis rats [8]; Protocol A (prophylactic regimen), control I/R 36±7%, mean±SE) was 17.25±2.5% and the “area of irreversible damage vs. control I/R” value (Male Lewis rats [8]; Protocol B (treatment regimen)) was “did not show a significant difference”.
